Measured values published in PubChem BioAssay (NCI).
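Briefly, cells in 96-well plates were exposed to five compound concentrations for 48 h, and endpoints were estimated by linear interpolation. At the TGI there is no net growth.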

Legend:
Experiment in all cases: NCI tumour cell line growth inhibition, 48 h
[1] = test system: 786-0 renal
[2] = test system: A498 renal
[3] = test system: A549 NSCLC
[4] = test system: ACHN renal
[5] = test system: CAKI-1 renal
[6] = test system: CCRF-CEM leukemia
[7] = test system: DLD-1 colon
[8] = test system: DMS 114 small cell lung
[9] = test system: DMS 273 small cell lung
[10] = test system: EKVX NSCLC
[11] = test system: HCC-2998 colon
[12] = test system: HCT-116 colon
[13] = test system: HCT-15 colon
[14] = test system: HL-60(TB) leukemia
[15] = test system: HOP-62 NSCLC
[16] = test system: HT29 colon
[17] = test system: IGROV1 ovarian
[18] = test system: K-562 leukemia
[19] = test system: KM12 colon
[20] = test system: KM20L2 colon
[21] = test system: LXFL 529 NSCLC
[22] = test system: M14 melanoma
[23] = test system: M19-MEL melanoma
[24] = test system: MALME-3M melanoma
[25] = test system: MOLT-4 leukemia
[26] = test system: NCI-H226 lung
[27] = test system: NCI-H23 lung
[28] = test system: NCI-H460 lung
[29] = test system: OVCAR-3 ovarian
[30] = test system: OVCAR-4 ovarian
[31] = test system: OVCAR-5 ovarian
[32] = test system: OVCAR-8 ovarian
[33] = test system: RPMI-8226 leukemia
[34] = test system: RXF 393 renal
[35] = test system: RXF-631 renal
[36] = test system: SF-295 CNS
[37] = test system: SF-539 CNS
[38] = test system: SK-MEL-2 melanoma
[39] = test system: SK-MEL-28 melanoma
[40] = test system: SK-MEL-5 melanoma
[41] = test system: SK-OV-3 ovarian
[42] = test system: SN12C renal
[43] = test system: SNB-75 CNS
[44] = test system: SNB-78 CNS
[45] = test system: SW-620 colon
[46] = test system: TK-10 renal
[47] = test system: U251 CNS
[48] = test system: UACC-257 melanoma
[49] = test system: UACC-62 melanoma
[50] = test system: UO-31 renal
[51] = test system: XF 498 CNS
[52] = test system: COLO 205 colon
[53] = test system: HOP-18 NSCLC
[54] = test system: HOP-92 NSCLC
[55] = test system: LOX IMVI melanoma
[56] = test system: MCF7 breast
[57] = test system: NCI-H522 lung
[58] = test system: NCI/ADR-RES ovarian
[59] = test system: P388 leukemia
[60] = test system: P388/ADR leukemia
[61] = test system: SF-268 CNS
[62] = test system: SN12K1 renal
[63] = test system: SNB-19 CNS

Measured: TGI

COC(=O)C1=C2CCC(=O)[C@@]2(C)C(OC(C)=O)C=CC1 (stereo partly drawn)
87.3 µM: [13]
92.9 µM: [51]
54 µM: [35]
69.6 µM: [12]
not listed: [52] | [53] | [54] | [55] | [56] | [57] | [58] | [59] | [60] | [61] | [62] | [63]
> 100 µM: all other assays above

CN1C(=O)c2ccccc2NC(=O)c2cnn(C)c21
> 57.4 µM: [12]
not listed: [1] | [4] | [21] | [22] | [35] | [46]
> 100 µM: all other assays above
